Reference: publication PMC6386767, “Characterization of recombinant fructose-1,6-bisphosphatase gene mutations: evidence of inhibition/activation of FBPase protein by gene mutation” (Bioscience Reports, 2019)
Where a chain is given by its changes, count along the chain named.

What was measured:
pig kidney FBPase K112A = molecular target: T1, pig kidney FBPase K112A (Sus scrofa, UniProt P00636, K113A); assay: Malachite Green kinetic assay, K112A mutant; type: biochemical; settings: enzyme K112A vs WT
T1 construct: His6 (C); made in house; host or cells: Escherichia coli BL21 (DE3)
T1 sequence (P00636 1-338 K113A): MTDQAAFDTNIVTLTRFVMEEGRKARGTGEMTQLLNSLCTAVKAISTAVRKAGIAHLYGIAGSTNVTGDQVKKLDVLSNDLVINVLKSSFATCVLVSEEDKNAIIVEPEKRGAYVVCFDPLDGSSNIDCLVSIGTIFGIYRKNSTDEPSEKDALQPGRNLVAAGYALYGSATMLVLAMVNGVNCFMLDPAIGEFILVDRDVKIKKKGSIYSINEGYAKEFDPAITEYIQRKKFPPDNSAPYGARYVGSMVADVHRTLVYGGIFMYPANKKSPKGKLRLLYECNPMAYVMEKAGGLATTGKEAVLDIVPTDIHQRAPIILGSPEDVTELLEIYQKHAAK
Experimental: (§1) For the kinetic assay, a standard curve was obtained from an ammonium molybdate Malachite Green inorganic phosphate assay (OD660 nm). The purified FBPase protein was dialyzed ×3 in 50 mM Tris buffer at pH 7.5 at 4°C. For enzyme concentration, absorbency values were recorded for all five mutant proteins using spectrophotometer readings at OD280 nm. To quantitate enzyme concentration, the enzymes were calculated based on the quantity of micrograms per microliter (µg/µl) present. Final concentration of WT and mutant enzymes was between 2.5 and 5.0 µg/µl. Using a colorimetric assay as described below, specific activity (SA) was determined. At last, all kinetic and binding assays described below were performed in 50 mM Tris pH 7.5.
(§2) Kinetic assays were performed for WT and mutant enzymes to identify functional differences between the WT enzyme and the mutants. […] Readings recorded at OD660 nm for each enzyme were applied to the standard curve equation. Micromoles of inorganic phosphate were calculated to determine the SA of mutant enzymes.
(§3) For each clone, the kinetic assay was performed in duplicates of triplicates. Malachite Geen was used to detect inorganic phosphate. Two separate clones were processed independently of the same mutant. All kinetic data were fit to symmetric sigmoidal curve using Origin software based on methods previously described [[27–29]]. More specifically, for kinetic parameters established via curve fitting (shown in Tables 1–3; and in Figure 5A,B), the equation y = d + (a − d)/1 + (x/c)^b was used where ‘x’ is represented by apparent Michelis constant (Km) when y = Vmax. […] P-values were significant at <0.001 and represent a comparison with the WT enzyme.

pig kidney FBPase Y113A = molecular target: T2, pig kidney FBPase Y113A (Sus scrofa, UniProt P00636, Y114A); assay: Malachite Green kinetic assay, Y113A mutant; type: biochemical; settings: enzyme Y113A vs WT
T2 construct: His6 (C); made in house; host or cells: Escherichia coli BL21 (DE3)
T2 sequence (P00636 1-338 Y114A): T1 sequence (P00636 1-338 K113A) with A113K, Y114A
Experimental: as §1, §2, §3

greater binding to the FBP substrate compared with WT (pig kidney FBPase K112A): 2 ×
greater binding to the FBP substrate compared with WT (pig kidney FBPase Y113A): 2 ×
SMILES: O=C(COP(=O)(O)O)[C@@H](O)[C@H](O)[C@H](O)COP(=O)(O)O [FBP, fructose-1,6-bisphosphate]
